Data: patent publication US20220177484A1, “MACROCYCLES WITH ANTIOXIDANT AND NEUROPROTECTIVE ACTIVITIES” (INSTITUTO BIOMAR, S.A, priority 2019, published 2022)

Key:
[1] = test system: cortical primary neurons (from C57BL6/J mice); test: H2O2 production in neurons after excitotoxic NMDA stimulus (Amplex Red); type: cell-based; conditions: 100 μM NMDA 10 min, then compound 0.1, 1, 5 μM (FIG. 5)
Experimental: (§1) For NMDA receptors activation, neurons at 8 days in vitro were incubated with 100 μM NMDA for 10 minutes. Neurons were then washed and further incubated for 4 hours in culture medium with DMSO only (DMSO empty bar), DMSO and NMDA (DMSO filled bar) and with increasing quantities of GKK1032C, GKK1032, Pyrrocidine A, Pyrrocidine B, CL0661, CL0667 and CL0670. Concentrations of 0.1 μM, 1 μM, 5 μM. *: p-value <0.05 vs. DMSO+NMDA (student's test).
(§2) Experiments were performed in […] cortical primary neurons, obtained as was previously described (Herrero-Mendez A. et al., Nat. Cell. Biol. 11:747-752, 2009). After 7 or 8 days in B27-MAO culture, neurons (from C57BL6/J mice) were incubated in the presence of N-methyl-D-aspartate (NMDA, a H2O2 production promoter; 100 μM) for 10 minutes, followed by a PBS washing step and submitted to a 24-hour B27 incubation step in the absence (DMSO) or presence of increasing amounts of GKK1032C, GKK1032, Pyrrocidine B, Pyrrocidine A, CL0661, CL0665, CL0667 and CL0670 (0.1 μM, 1 μM and 5 μM). B27-MAO stands for Neurobasal medium, supplemented with B27 supplement in the absence of antioxidants (minus antioxidants, MAO).
The release of H2O2 was measured using the fluorescent method Amplex© Red hydrogen peroxide/peroxidase assay kit (Invitrogen, catalog number A22188) using a multiwell fluorescence reader (Varioskan, Thermo Scientific).
(§3) The data are presented as the mean values±standard deviation of the mean from n=3.

[2] = test system: cortical primary neurons (from C57BL6/J mice); test: Caspase-3 activity (neuronal apoptosis) after excitotoxic NMDA stimulus; type: cell-based; conditions: 100 μM NMDA 10 min, then 24 h with compound 0.1, 1, 5 μM (FIG. 6)
Experimental: as §1, with “24” for “4”, “Pyrrocidine” for “Pyrrocidine A, Pyrrocidine”, “CL0661, CL0665,” for “CL0661,”, “pvalue” for “p-value”
as §2
Neuronal apoptosis was determined by measuring caspase-3 activity (Veas-Perez de Tudela et al. Sci Rep 5:18180; doi:10.1038/srep18180 (2015).
as §3

[3] = test system: C57BL6/J male mice; test: Stroke size after Middle Cerebral Artery occlusion (tetrazolium chloride); type: in vivo; conditions: for protection of the stroke volume caused by the Middle Cerebral Artery occlusion: GKK1032C and CL0670 10 mg/kg intravenously (FIG. 19); for percentage averaged stroke volume: mice treated with GKK1032C and CL0670 10 mg/kg intravenously after MCA occlusion, untreated ischemia ˜48%
Description: FIG. 19 is the graphical representation of the volume of the cerebral stroke of mice submitted to Middle Cerebral Artery occlusion effect (empty bar) and of mice submitted to Middle Cerebral Artery occlusion and administration of Compound I and CL0670 (solid bar). *: p-value<0.05 vs. ischemia (student's test).
Middle Cerebral Artery occlusion involves temporarily or permanently restricting MCA blood flow to the cortex and striatum. The cerebral ischemic model of stroke is commonly used to assess ischemic injury in the brain. Occlusion of the middle cerebral artery (MCA) leads to a reduction of cerebral blood flow in both the striatum and the cortex. It is a highly reproducible model that results in brain damages similar to those occurring in human stroke.
Compounds GKK1032C and CL0670 were administered intravenously at a dose of 10 mg/kg. 11-week old C57BL6/J male mice were divided into 3 groups of 7 mice each: mice submitted to Middle Cerebral Artery occlusion (ischemia), mice submitted to Middle Cerebral Artery occlusion and administration of GKK1032C and CL0670.
All mice were firstly trained in the rotarod for 3 consecutive days. After this period, the mice were put to sleep with sevoflurane and submitted to surgery. Occlusion was performed by maintain the surgical filament occluding the middle cerebral artery for 30 minutes. Once removed, GKK1032C and CL0670 were injected at the jugular vein. 24 hours after reanimation, the animals were submitted to the rotarod test.
To compare the neuroprotective effect caused by GKK1032C and CL0670 to the motor coordination of mice and the cerebral damage caused by the chirurgical procedure, the animals were sacrificed, and the stroke size measured by visual inspection after treatment with tetrazolium chloride. […] The data confirms that GKK1032C and CL0670 are excellent neuroprotector agents against stroke.

[4] = test system: C57BL6/J male mice; test: Rotarod test in 3-nitropropionic acid chemical model of Huntington's disease; type: in vivo; conditions: group II injected with GKK1032C and CL0670, once-daily 150 mg/kg for 3 days, plus 3-nitropropionic acid 50 mg/kg twice daily; after two administrations (FIG. 15)
Experimental: Compound I and CL0670 injections were performed at day 1 and day 2. 3-nitropropionic acid injections were performed at days 1, 1.5, 2, 2.5, 3 and 3.5. The shown data points were obtained 2 hours after the injections. p-value<0.05 vs. control (student's test).
(§4) A chemical model of Huntington's disease was conducted to evaluate the capacity of compound I and CL0670 in protecting neurons. This is achieved by intraperitoneal injection of 3-nitropropionic acid which induces neuronal oxidative stress by inhibiting the succinate dehydrogenase enzyme.
(§5) 8-weeks old C57BL6/J male mice were divided into 4 groups.
(§6) Mice in group I (4 mice) were injected with GKK1032C and CL0670 (once-daily dose of 150 mg/kg for 3 days).
(§7) Mice in group II (5 mice) were injected with GKK1032C and CL0670 (once-daily dose of 150 mg/kg for 3 days) and with 3-nitropropionic acid (twice daily dose of 50 mg/kg for 3 days). In the case of group II, 3-nitropropionic acid was injected two hours and twelve hours after injection with GKK1032C and CL0670.
(§8) Mice in group III (5 mice) were injected with 3-nitropropionic acid (twice daily dose of 50 mg/kg for 3 days).
(§9) Mice in group IV (6 mice) were injected with vehicle only.
The mice were submitted to the rotarod test once-daily, 2 hours after the injections. […]

[5] = test system: C57BL6/J male mice; test: Open field test in 3-nitropropionic acid chemical model of Huntington's disease; type: in vivo; conditions: mice injected with GKK1032C and CL0670, once-daily 150 mg/kg (FIG. 16)
Experimental: GKK1032C and CL0670 injections were performed at day 1, day 2 and day 3. 3-nitropropionic acid injections were performed at days 1, 1.5, 2, 2.5, 3 and 3.5. The shown data points were obtained 4 hours after the injections. p-value<0.05 vs. control (student's test).
as §4, §5, §6, §7, §8, §9

Row | SMILES | H2O2 production in neuron cells after NMDA [1] | neuronal apoptosis (caspase-3 activity) after NMDA [2] | protection of the stroke volume caused by the Middle Cerebral Artery occlusion [3] | percentage averaged stroke volume [3] [%] | motor discoordination (rotarod) induced by 3-nitropropionic acid [4] | number of line crossings (open field), 3-nitropropionic acid model [5] | time spent in central square of the arena (open field), 3-nitropropionic acid model [5]
1 | C=CC1(C)C=C(C)C2C3C(Oc4ccc(cc4)CC4C(=O)NC(O)C4C(=O)C31)C1C(C)CC(C)CC21C (centres unmarked) [CL0670] | successful in preventing H2O2 from being produced | effective in protecting neuron cells against apoptosis | roughly 18% | 39.5 | prevent partially | increased | increased
2 | C=CC1(C)C=C(C)C2C3C(Oc4ccc(cc4)CC4(O)NC(=O)C5(OC45)C(=O)C31)C1C(C)CC(C)CC21C (centres unmarked) [Compound I] | successful in preventing H2O2 from being produced | effective in protecting neuron cells against apoptosis | roughly 18% | 39.5 | prevent partially | increased | increased
